Test results from the NIST ThermoML archive (doi:10.1016/j.jct.2009.11.018).
Numbers after ± are expanded uncertainties.

Test: xn = mol fraction of the nth substance listed
Conditions: 298.15 K, 101 kPa, Liquid, Pycnometric method

SMILES | mass density (x1 = 0.0625) [kg/m3] | mass density (x1 = 0.1347) [kg/m3] | mass density (x1 = 0.2153) [kg/m3] | mass density (x1 = 0.3019) [kg/m3] | mass density (x1 = 0.3915) [kg/m3] | mass density (x1 = 0.4804) [kg/m3] | mass density (x1 = 0.5651) [kg/m3] | mass density (x1 = 0.6428) [kg/m3] | mass density (x1 = 0.7115) [kg/m3] | mass density (x1 = 0.7703) [kg/m3] | mass density (x1 = 0.8195) [kg/m3] | mass density (x1 = 0.8595) [kg/m3] | mass density (x1 = 0.8916) [kg/m3] | mass density (x1 = 0.9244) [kg/m3] | mass density (x1 = 0.0731) [kg/m3] | mass density (x1 = 0.1555) [kg/m3] | mass density (x1 = 0.2449) [kg/m3] | mass density (x1 = 0.3384) [kg/m3] | mass density (x1 = 0.4321) [kg/m3] | mass density (x1 = 0.5223) [kg/m3] | also measured
CCC(O)CO (centres undefined) [1,2-butanediol] + O | 1009.5 ± 2.7 | 1015.8 ± 2.7 | 1016.4 ± 2.7 | 1014.2 ± 2.7 | 1011.6 ± 2.7 | 1009.2 ± 2.7 | 1006.9 ± 2.7 | 1005.2 ± 2.7 | 1003.6 ± 2.7 | 1002.4 ± 2.7 | 1001.4 ± 2.7 | 1000.7 ± 2.7 | 1000.2 ± 2.7 | 999.9 ± 2.7 | – | – | – | – | – | – | –
CC(O)CO (centres undefined) [1,2-propanediol] + O | – | – | – | – | – | – | – | – | – | – | – | – | – | – | 1016.4 ± 2.7 | 1031.1 ± 2.7 | 1037.7 ± 2.7 | 1039.6 ± 2.7 | 1039.8 ± 2.7 | 1039 ± 2.7 | mass density (x1 = 0.6058): 1038 ± 2.7 kg/m3; mass density (x1 = 0.6803): 1036.8 ± 2.7 kg/m3; mass density (x1 = 0.7446): 1035.9 ± 2.7 kg/m3; mass density (x1 = 0.7987): 1035 ± 2.7 kg/m3; mass density (x1 = 0.843): 1034.5 ± 2.7 kg/m3; mass density (x1 = 0.8786): 1033.8 ± 2.7 kg/m3; mass density (x1 = 0.9068): 1033.4 ± 2.7 kg/m3; mass density (x1 = 0.9355): 1033.1 ± 2.7 kg/m3
CC(O)CCO (centres undefined) [1,3-butanediol] + O | 1008.2 ± 2.7 | 1015.9 ± 2.7 | 1019.2 ± 2.7 | 1018.8 ± 2.7 | 1016.8 ± 2.7 | 1014.4 ± 2.7 | 1012.2 ± 2.7 | 1009.9 ± 2.7 | 1007.9 ± 2.7 | 1006.2 ± 2.7 | 1004.8 ± 2.7 | 1003.8 ± 2.6 | 1003 ± 2.6 | 1002.2 ± 2.6 | – | – | – | – | – | – | –
OCCCCO [1,4-butanediol] + O | 1006.6 ± 2.7 | 1015 ± 2.7 | 1019.9 ± 2.7 | 1021.6 ± 2.7 | 1021.7 ± 2.7 | 1021 ± 2.7 | 1020 ± 2.7 | 1018.8 ± 2.7 | 1017.5 ± 2.7 | 1016.6 ± 2.7 | 1015.7 ± 2.7 | 1015.1 ± 2.7 | 1014.7 ± 2.7 | 1014.1 ± 2.7 | – | – | – | – | – | – | –
CC(O)C(C)O (centres undefined) [2,3-butanediol] + O | – | – | – | – | – | – | – | – | – | – | – | – | – | – | – | – | – | – | – | – | mass density (x1 = 0.0618): 1014.1 ± 2.7 kg/m3; mass density (x1 = 0.1379): 1021.5 ± 2.7 kg/m3; mass density (x1 = 0.1796): 1023.1 ± 2.7 kg/m3; mass density (x1 = 0.2179): 1023.2 ± 2.7 kg/m3; mass density (x1 = 0.2417): 1022.7 ± 2.7 kg/m3; mass density (x1 = 0.2696): 1022 ± 2.7 kg/m3; mass density (x1 = 0.3027): 1021 ± 2.7 kg/m3; mass density (x1 = 0.3426): 1019.5 ± 2.7 kg/m3; mass density (x1 = 0.3913): 1017.6 ± 2.7 kg/m3; mass density (x1 = 0.4524): 1015.2 ± 2.7 kg/m3; mass density (x1 = 0.5308): 1012.2 ± 2.7 kg/m3; mass density (x1 = 0.6352): 1008.4 ± 2.7 kg/m3; mass density (x1 = 0.7805): 1004.1 ± 2.7 kg/m3; mass density (x1 = 0.9001): 1000.9 ± 2.7 kg/m3
OCCCO [propan-1,3-diol] + O | – | – | – | – | – | – | – | – | – | – | – | – | – | – | 1015.1 ± 2.7 | 1028.5 ± 2.7 | 1038.2 ± 2.8 | 1044.4 ± 2.8 | 1047.9 ± 2.8 | 1049.6 ± 2.8 | mass density (x1 = 0.6058): 1050.3 ± 2.8 kg/m3; mass density (x1 = 0.6803): 1050.4 ± 2.8 kg/m3; mass density (x1 = 0.7446): 1050.5 ± 2.8 kg/m3; mass density (x1 = 0.7987): 1050.5 ± 2.8 kg/m3; mass density (x1 = 0.843): 1050.4 ± 2.8 kg/m3; mass density (x1 = 0.8786): 1050.4 ± 2.8 kg/m3; mass density (x1 = 0.9068): 1050.2 ± 2.8 kg/m3; mass density (x1 = 0.9355): 1049.9 ± 2.8 kg/m3
